# According to US8669256B2, “Substituted thieno[2,3-b]pyrazine compounds as modulators of B-Raf kinase activity” (Merck Sharp & Dohme B.V., priority 2010, dated 2014):
# Where two headings read alike, the source gives them in different places.
# Columns and labels:
# [1] = biological target: T1, GST-tagged human recombinant active B-Raf (Δ1-415) (Homo sapiens, UniProt P15056); experiment: B-Raf kinase activity, IMAP coupled assay (B-Raf/MEK1/ERK2, fluorescence polarization); type: biochemical; conditions: bounds also given as pIC50 (>6, >7, >8); 60 min pre-incubation with compound, ATP 50 μM; read-out: IC50, B-Raf IMAP assay
# T1 construct: GST; purchased Upstate/Millipore
# Method in brief: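 Coupled cascade: GST-B-Raf (Δ1-415; 0.2 U/ml) pre-incubated with compound (1% DMSO) 60 min at room temperature, then unactive MEK1 (64 ng/ml), unactive ERK2 (600 ng/ml), 50 nM fluorescein-Erktide and 50 μM ATP added for 60 min at 30 °C, pH 7.2 Tris buffer. Phosphopeptide captured on IMAP beads (60 min); fluorescence polarization read.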
# [2] = system: phosphorylation of ERK1/2 in A375 cells containing mutant B-Raf (V600E); experiment: Phospho-ERK FACE assay in A375 (B-Raf mutated) melanoma cell line; type: cell-based; conditions: Homo sapiens, A-375, A375 cells, 2 hours incubation, read-out: IC50, A375 melanoma phospho-ERK assay
# Method in brief: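 A375 cells (B-Raf V600E), serum-starved overnight in 0.1% FBS, exposed to compounds for 2 hours at 37° C (1% DMSO). Fixed cells probed with anti-phospho-ERK1/2 (Thr202/Tyr204, Thr185/Tyr187) antibody overnight at 4° C, total ERK on a separate plate. HRP-secondary chemiluminescence read-out.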
# [3] = between 1 μM and 100 nM (6<pIC50<7)
# T1 sequence (P15056 416-766, stated change not applied): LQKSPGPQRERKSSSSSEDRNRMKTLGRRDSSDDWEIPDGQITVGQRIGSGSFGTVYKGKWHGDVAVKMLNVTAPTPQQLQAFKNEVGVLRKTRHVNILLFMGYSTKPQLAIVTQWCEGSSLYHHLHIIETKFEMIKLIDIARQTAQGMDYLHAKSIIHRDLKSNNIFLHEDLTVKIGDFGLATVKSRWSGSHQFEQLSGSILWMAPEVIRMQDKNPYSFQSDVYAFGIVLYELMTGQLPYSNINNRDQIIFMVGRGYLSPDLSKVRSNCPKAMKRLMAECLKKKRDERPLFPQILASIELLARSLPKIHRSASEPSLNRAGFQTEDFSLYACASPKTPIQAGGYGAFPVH
Compound,IC50 [1] [nM],IC50 ([2]; class between 10 μM and 1 μM (5<pIC50<6)) [nM],"IC50 [2, 3] [nM]",IC50 ([2]; class given as below 100 nM (pIC50>7)) [nM]
"Cc1ccc(NC(=O)c2cccc(C(C)(C)C#N)c2)cc1NC(=O)c1cc2ncc(NCCO)nc2s1 [Example 66, N-(5-(3-(2-cyanopropan-2-yl)benzamido)-2-methylphenyl)-3-(2-hydroxyethylamino)thieno[2,3-b]pyrazine-6-carboxamide]",< 10,1000 to 10000,–,–
"CCNc1cnc2cc(C(=O)Nc3cc(NC(=O)c4cccc(C(C)(C)C#N)c4)ccc3C)sc2n1 [Example 67, N-(5-(3-(2-cyanopropan-2-yl)benzamido)-2-methylphenyl)-3-(ethylamino)thieno[2,3-b]pyrazine-6-carboxamide]",< 100,–,100 to 1000,–
"Cc1ccc(NC(=O)c2cccc(C(C)(C)C#N)c2)cc1NC(=O)c1cc2ncc(-c3cccnc3)nc2s1 [Example 68, N-(5-(3-(2-cyanopropan-2-yl)benzamido)-2-methylphenyl)-3-(pyridin-3-yl)thieno[2,3-b]pyrazine-6-carboxamide]",< 100,–,100 to 1000,–
"Cc1ccc(NC(=O)c2cccc(C(C)(C)C#N)c2)cc1NC(=O)c1cc2ncc(-c3ccncc3)nc2s1 [Example 69, N-(5-(3-(2-cyanopropan-2-yl)benzamido)-2-methylphenyl)-3-(pyridin-4-yl)thieno[2,3-b]pyrazine-6-carboxamide]",< 10,–,–,< 100

# Further lines, results first:
IC50 [1] [nM],IC50 ([2]; class between 10 μM and 1 μM (5<pIC50<6)) [nM],"IC50 [2, 3] [nM]",IC50 ([2]; class given as below 100 nM (pIC50>7)) [nM],Compound
< 100,–,100 to 1000,–,"Cc1cnc2cc(C(=O)Nc3cc(NC(=O)c4cccc(C(C)(C)C#N)c4)ccc3C)sc2n1 [Example 70, N-(5-(3-(2-cyanopropan-2-yl)benzamido)-2-methylphenyl)-3-methylthieno[2,3-b]pyrazine-6-carboxamide]"
< 100,–,100 to 1000,–,"Cc1ccc(NC(=O)c2cccc(C(C)(C)C#N)c2)cc1C(=O)Nc1cc2nccnc2s1 [Example 73, 5-(3-(2-cyanopropan-2-yl)benzamido)-2-methyl-N-(thieno[2,3-b]pyrazin-6-yl)benzamide]"
